Test results: patent publication US5622839A (ZymoGenetics, Inc., priority 1995, dated 1997)

How the values were obtained:
[1] = target: T1, human calcitonin receptor (Homo sapiens, UniProt P30988); test: CRE-luciferase induction in BHK/KZ10-20-48 cells transfected with pHollex (Hollex1, Hollex2); format: cell-based; settings: Hollex1 and Hollex2 clones; 4 h at 37° C.; FIG. 3 and FIG. 4
T1 construct: Hollex encoded a protein of 474 amino acids; expressed in transfected cells; host or cells: BHK 570 / BHK/KZ10-20-48 (baby hamster kidney) stably transfected with pHollex
T1 sequence (P30988 25-474): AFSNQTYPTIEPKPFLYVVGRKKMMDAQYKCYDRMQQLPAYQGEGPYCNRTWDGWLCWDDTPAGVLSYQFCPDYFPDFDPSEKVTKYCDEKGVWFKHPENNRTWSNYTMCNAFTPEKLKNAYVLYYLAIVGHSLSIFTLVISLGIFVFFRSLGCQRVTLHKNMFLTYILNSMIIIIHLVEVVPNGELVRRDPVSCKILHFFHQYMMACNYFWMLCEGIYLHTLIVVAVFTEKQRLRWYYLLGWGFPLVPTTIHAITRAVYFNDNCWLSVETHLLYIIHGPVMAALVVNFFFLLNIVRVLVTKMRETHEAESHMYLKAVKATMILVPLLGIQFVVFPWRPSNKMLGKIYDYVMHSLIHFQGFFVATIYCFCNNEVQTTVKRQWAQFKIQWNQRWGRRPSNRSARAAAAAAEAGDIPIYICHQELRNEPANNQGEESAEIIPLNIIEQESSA
Protocol: This cell line permits the measurement of luciferase activity, adenylate cyclase activity and intracellular calcium concentrations in response to calcitonin binding to its receptor.
Plasmid KZ10 was transfected into BHK570 cells (available from ATCC as Accession no. CRL 10314) using the calcium phosphate precipitation method essentially as described by Graham and Van de Eb (Virol. 52: 456, 1973, which is incorporated by reference herein). The transfected cells were grown in growth medium (Dulbecco's modified Eagle's medium (DMEM) containing 10% fetal calf serum and 2.0 mm L-glutamine). After a few days in nonselective growth medium, the growth medium was replaced with methotrexate (MTX) selection medium (growth medium containing 250 nM MTX). The cells were then allowed to grow to confluency after which they were trypsinized and plated at limiting dilution into the wells of 96-well plates. […]
Induction was initiated by removing old medium from the wells and adding 100 μl of fresh growth medium and 100 μl of each 2× solution in triplicate sample wells. Uninduced levels were determined in triplicate wells to which 100 μl of DMEM containing 10% fetal calf serum was added. […]
Following induction, the medium was removed, and the wells were washed once with 200 μl/well PBS. […] The fold induction of luciferase for each agonist was calculated as follows: […]

[2] = target: T1, human calcitonin receptor; test: Calcitonin competition binding assay with cloned human calcitonin receptor (Hollex1, Hollex2); settings: for Results (bound 125I calcitonin): 125I calcitonin […] 10^-2 nM
Protocol: Clones Hollex1 and Hollex2 were tested for receptor-mediated ability to bind calcitonin using a competition assay. T47D cells were used as a positive control and BHK cells transfected with Zem1698 were used as a negative control.
The cells were rinsed in binding medium (500 ml RPMI 1640 (Sigma, St. Louis, Mo.), 1 mg/ml bacitracin (Sigma), and 1 mg/ml BSA (Boehringer Mannheim)) to remove the serum. […] The cells were incubated for 1.5 hours at room temperature, and then rinsed 3 times with PBS to remove unincorporated radioactivity. Five hundred microliters of 0.25N NaOH was added to each well to solubilize the cells. The samples were collected from each well and CPMs were counted on a gamma counter.

salmon calcitonin
fold induction of luciferase [1]: 5-10 fold | baseline control ([2]; 200 nM unlabeled salmon calcitonin): 27 cpm | Kd ([2]; Hollex1): 0.5 ± 0.2 nM | Kd ([2]; Hollex2): 0.3 ± 0.01 nM | Results (bound 125I calcitonin) ([2]; unlabeled salmon calcitonin 0.003 nM): 10430 cpm | Results (bound 125I calcitonin) ([2]; unlabeled salmon calcitonin 0.01 nM): 10278 cpm | Results (bound 125I calcitonin) ([2]; unlabeled salmon calcitonin 0.03 nM): 10262 cpm | Results (bound 125I calcitonin) ([2]; unlabeled salmon calcitonin 0.1 nM): 9711 cpm | Results (bound 125I calcitonin) ([2]; unlabeled salmon calcitonin 0.3 nM): 8421 cpm | Results (bound 125I calcitonin) ([2]; unlabeled salmon calcitonin 1 nM): 4132 cpm | Results (bound 125I calcitonin) ([2]; unlabeled salmon calcitonin 3 nM): 1639 cpm | Results (bound 125I calcitonin) ([2]; unlabeled salmon calcitonin 10 nM): 558 cpm | Results (bound 125I calcitonin) ([2]; unlabeled salmon calcitonin 30 nM): 458 cpm | Results (bound 125I calcitonin) ([2]; unlabeled salmon calcitonin 50 nM): 147 cpm
